Consider one compound from patent US12559471B2, “1,5-dihydro-2,4-benzodiazepine-3-one derivative and application thereof” (JIANGSU NHWA PHARMACEUTICAL CO., LTD, priority 2020, dated 2026).

As usually defined, the Ki is a measure of affinity in units of concentration, obtained from inhibition or displacement. What is called ED50 is the midpoint of the dose-response relation. The term IC50 denotes the point on the concentration scale where inhibition reaches its midpoint. The low end stands for greater potency, the high end for weaker potency.

One data set has as its target 5-HT2A receptor (Homo sapiens (Human), UniProt P28223). The data set can be described thus: Competitive 5-HT2A receptor binding assay (3H-Ketanserin, CHO-5-HT2A membrane). As for the experimental part:
1) Preparation of CHO-5-HT2A Receptor Membrane
The precipitate was collected, and the supernatant was discarded. The solution B was added into the precipitate. […] The supernatant was carefully discarded, and the solution B was added into the precipitate again. […] The precipitate obtained was stored at −80° C.
1) Competitive 5-HT2A Receptor Binding Assay
Step 2: 100 μL of the membrane preparation was added into each reaction tube.
After the filtration, the filter membrane was dried at 60° C. and added into a scintillation disc attached with a bottom membrane, which was then added with 40 μL of scintillation liquid, sealed with a top membrane, and left to stand.

In data set [1] the test system is MK-801-induced high activity behavior of mice. The data set can be described thus: Dizocilpine (MK-801)-induced high activity test in mice. Type of data set: in vivo. Particulars: Mus musculus, 1 h, intragastric, MK-801 0.3 mg/kg i.p., 60 min, read-out: ED50 for inhibiting the MK-801-induced high activity behavior.
The target in a further data set is hERG potassium channel (Homo sapiens (Human), UniProt Q12809). The data set can be described thus: In vitro hERG assay, whole-cell patch clamp in HEK-293 cells. Type of data set: cell-based. The note with it: HEK-293 cells stably expressing hERG, room temperature. As for the experimental part:
b. […] The working solutions of the test compounds were ultrasonically treated for 20 min.
The cell suspension was gently pipetted to separate the aggregated cells.
Under an inverted microscope, recording electrodes were controlled by a glass electrode micromanipulator (micromanipulation) to contact with the cell. […] After forming the GΩ seal, a rapid capacitance compensation was given.
Negative control and test compounds flowed through the recording chamber in an ascending order of concentration by gravity perfusion to quickly act on the cells. During the recording, the extracellular fluid was continuously circulated by a vacuum pump. […] Each concentration was allowed to act for 5 min or until the current was stabilized. All experiments were performed at room temperature.
[formula] Basic statistics were calculated for each concentration, including mean, standard deviation (SD), standard error (SE), and replicates (n). The dose-dependent curve was fitted with the following equation and the half maximal inhibitory concentration (IC50) of the test compounds was calculated:
Curve fitting and calculation of IC50 were performed by GraphPad Prism 5.0 software. 5. Experimental Results

5-HT2A receptor, sequence (P28223 whole entry): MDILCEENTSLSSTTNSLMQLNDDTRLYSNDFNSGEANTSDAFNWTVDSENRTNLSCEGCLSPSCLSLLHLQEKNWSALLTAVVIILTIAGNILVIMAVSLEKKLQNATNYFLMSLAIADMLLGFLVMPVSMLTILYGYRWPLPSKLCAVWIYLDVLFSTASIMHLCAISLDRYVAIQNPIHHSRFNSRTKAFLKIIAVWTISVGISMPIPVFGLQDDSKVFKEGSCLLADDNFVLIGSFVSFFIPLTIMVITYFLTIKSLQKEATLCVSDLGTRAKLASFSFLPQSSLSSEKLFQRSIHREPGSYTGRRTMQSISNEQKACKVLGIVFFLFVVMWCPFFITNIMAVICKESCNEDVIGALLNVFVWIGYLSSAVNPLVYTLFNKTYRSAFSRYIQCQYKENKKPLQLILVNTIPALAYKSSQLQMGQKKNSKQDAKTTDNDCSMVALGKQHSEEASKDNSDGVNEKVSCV
hERG potassium channel, sequence (Q12809 whole entry): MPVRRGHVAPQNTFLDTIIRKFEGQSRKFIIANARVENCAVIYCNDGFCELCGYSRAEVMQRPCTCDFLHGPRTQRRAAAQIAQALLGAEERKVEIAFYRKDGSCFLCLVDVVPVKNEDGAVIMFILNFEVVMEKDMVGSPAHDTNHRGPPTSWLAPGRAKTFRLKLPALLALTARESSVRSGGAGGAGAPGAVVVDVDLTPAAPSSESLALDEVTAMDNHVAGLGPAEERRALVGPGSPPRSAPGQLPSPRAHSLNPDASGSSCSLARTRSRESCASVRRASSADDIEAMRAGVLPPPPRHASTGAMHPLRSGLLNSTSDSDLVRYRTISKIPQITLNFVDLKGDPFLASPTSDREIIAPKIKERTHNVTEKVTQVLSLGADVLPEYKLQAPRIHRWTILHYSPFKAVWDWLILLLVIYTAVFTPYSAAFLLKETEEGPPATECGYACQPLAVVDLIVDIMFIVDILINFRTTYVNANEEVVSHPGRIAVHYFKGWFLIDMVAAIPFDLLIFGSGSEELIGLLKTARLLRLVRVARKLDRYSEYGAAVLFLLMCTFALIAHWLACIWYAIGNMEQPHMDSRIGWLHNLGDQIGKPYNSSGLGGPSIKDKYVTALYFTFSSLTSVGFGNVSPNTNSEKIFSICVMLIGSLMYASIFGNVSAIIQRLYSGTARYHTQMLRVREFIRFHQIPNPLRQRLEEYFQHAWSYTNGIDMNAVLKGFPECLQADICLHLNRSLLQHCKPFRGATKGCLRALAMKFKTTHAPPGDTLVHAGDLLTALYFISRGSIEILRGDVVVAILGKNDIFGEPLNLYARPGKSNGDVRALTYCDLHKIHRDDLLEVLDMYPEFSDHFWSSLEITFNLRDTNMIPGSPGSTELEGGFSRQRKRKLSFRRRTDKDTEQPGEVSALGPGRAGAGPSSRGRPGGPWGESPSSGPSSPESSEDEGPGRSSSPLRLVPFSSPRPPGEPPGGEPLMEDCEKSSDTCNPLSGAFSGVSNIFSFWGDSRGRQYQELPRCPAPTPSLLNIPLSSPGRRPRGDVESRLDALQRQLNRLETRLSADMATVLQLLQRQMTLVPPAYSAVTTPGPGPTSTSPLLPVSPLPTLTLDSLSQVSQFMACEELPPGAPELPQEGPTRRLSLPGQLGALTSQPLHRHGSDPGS

Turning to `CC(C)COc1ccc(CN2Cc3ccc(F)cc3CN(C3CCN(C)CC3)C2=O)cc1` [NH-K-A19005, 8-fluoro-2-(1-methylpiperidin-4-yl)-4-[[4-(2-methylpropoxy)phenyl]methyl]-1,5-dihydro-2,4-benzo diazepine-3-one], the Ki on 5-HT2A receptor (CHO-5-HT2A membrane, 3H-Ketanserin, read-out: 5-HT2A (Ki value)) is 0.429 nM. Moreover, the 2C/2A on 5-HT2A receptor (ratio of 5-HT2C Ki to 5-HT2A Ki) was determined as 7.907. In addition, the median effective dose (ED50) in data set [1] worked out at 1.01 mg/kg. The IC50 against hERG potassium channel turned out to be 3170 nM.
